Assays:
[1] = tested on: TSA: murine adenocarcinoma (spontaneous cancer of the breast); test: In-vitro plaque assay of MARIGENOL microemulsions, greatest cytotoxic dilution, TSA; assay type: cell-based; conditions: cell line TSA; 5 h; microemulsion 0,1%
Description: A biological assay system using microtiter plates and serial dilutions has been developed Batches of 10^4 tumour cells per ml were set up in culture medium RPMI 1640 and […] with 10% of fetal calf serum (GIBCO); the cells are spread at a density low enough to enable them to grow during the assay in so-called non-confluent monolayers. Samples are added after 6-24 hours, with 100 μl per row, to which 100 μl of medium are added in the first well. Half of this mixture is withdrawn, transferred into the next well and again treated with 100 μl of medium, etc.
In the plaque assay, the samples are incubated at 37° C. for 3-5 days under 31/2% of CO2. They are then stained and fixed using 0.1% crystal violet (Fluka, Buchs) in a solution of 70% of methanol, 1% of formaldehyde and 29% water. The samples are evaluated under the microscope, magnification 300×. The greatest cytotoxic dilution is determined. The samples can also be evaluated quantitatively by means of scanning and absorption measurement in a spectrophotometer.

TSA adenocarcinoma = test: In-vivo assay on mice, TSA tumour growth, MARIGENOL 0,1% microemulsions; parameters: species or system mice (Balb-c); key: + swelling; conditions: 0,1% microemulsion
Description: The in-vivo assays were carried out on female mice. Old Balb-c strain animals of 28-32 g body weight were used (Charles River, Milan). Used as comparison standards throughout was the spontaneous adenocarcinoma TSA, a murine tumour cell line which was provided regularly by Prof. Guido Forni, Istituto di Microbiologia, Universita degli Studi di Torino, Scuola di Medicina.
A series of groups of 5 test animals each were fed with ordinary test feed (NAFAG complete feed No. 850, from Nahr- und Futtermittel AG, Gossau).
14 days after the introduction (average latency period), the newly-formed tissue is palpitated; ditto after 21 and after 28 days, and in some cases 35, days. The mean of the length and width of the solid, distinct tumour mass under the skin is determined (postmortem recheck).
To test the activity of the preparations in live organisms, the remaining test animals receive a daily dose of 0.25 ml of a test preparation by tube, in addition to the ordinary test feed. After an adaptation period of 5-7 days, the tumour is introduced, likewise inguinally, with 80-100'000 TSA units, as for the controls. It takes in every single case, in the group and on repetition, thus permitting the statistical groups to be kept to a relatively low number.
The experimental set-up is the same as in the case of gavage. Instead of using a tube, the preparations to be tested are administered inguinally by injection (right flank, subcutaneously), at a rate of 0.25 ml 3 times per week.

Row | Compound | Active in dilution to 1: [1] | Tumor mass Σ1/2 L + B (TSA adenocarcinoma; TSA after 14 days) | Tumor mass Σ1/2 L + B (TSA adenocarcinoma; TSA after 21 days) | Tumor mass Σ1/2 L + B (TSA adenocarcinoma; TSA after 28 days) [mm]
1 | β-SITOSTEROLUNDECENOATE [C 11:1-SITOSTEROL] | 40 1: |  |  | 
2 | CCCCC/C=C\C/C=C\CCCCCCCC(=O)O[C@H]1CC[C@@]2(C)C(=CC[C@H]3[C@@H]4CC[C@H]([C@H](C)CC[C@@H](CC)C(C)C)[C@@]4(C)CC[C@@H]32)C1 [β-Sitosterol-linoleate, stigmast-5-en-3-ol-9,12-octadecadienoate] |  | 0 mm | + | 1
3 | stigmast-5-en 3-ol-dodecenoate [C 12:1-SITOSTEROL] | 640 1: | 1 mm | 0 mm | 2
4 | CC/C=C\C/C=C\C/C=C\CCCCCCCC(=O)O[C@H]1CC[C@@]2(C)C(=CC[C@H]3[C@@H]4CC[C@H]([C@H](C)CC[C@@H](CC)C(C)C)[C@@]4(C)CC[C@@H]32)C1 [C 18:3-SITOSTEROL, stigmast-5-en-3-ol-9,12,15-octadecatrienoate] |  | + | + | 1
5 | stigmasta-5,22-dien-3-ol-doiecenoate [Stigmasterol-dodecenoate] |  | 0 mm | 0 mm | 2
6 | CCCCCCCCCCCCCCCC(=O)O[C@H]1CC[C@@]2(C)C(=CC[C@H]3[C@@H]4CC[C@H]([C@H](C)/C=C/[C@@H](CC)C(C)C)[C@@]4(C)CC[C@@H]32)C1 [C 16:0 STIGMASTEROL, STIGMASTEROL-PALMITATE] | 80 1: |  |  | 

— US5270041A, “Sterols, their fatty acid esters and glucosides; processes for their preparation; spontaneously dispersible agents containing these compounds, and their use for treatment of tumors” (Marigen S.A., priority 1989, dated 1993)
